From patent US11242354B2, “4-sulfur substituted podophyllotoxin derivative and preparation method therefor and use thereof” (priority 2017, dated 2022) come the findings set out here.

Where two headings read alike, the source gives them in different places.

For series [1], the system named is HepG2. Description: MTT test for inhibition of tumor cells, HepG2. The note with it: 48 h. The class given is cell-based.
Experimental: (§1) HepG2, HeLa cell lines and human normal liver cells HL-7702 in a logarithmic growth period were centrifuged at 1000 rpm for 5 min, and the supernatant was discarded, the cells were suspended with a suitable amount of culture medium to adjust the cell concentration to 3.5×10^4/well, the cells were seeded in 96-well plates, and the following experimental groups were set:
(§2) 100 μl of DMSO was added to each well, followed by shaking on a shaker for 30 min at 37° C., the absorbance (OD) was measured at 492 nm, and the MTT ratio was calculated as the OD value of drug group/OD value of negative control group.
Series [2] concerns human normal hepatocytes HL-7702. Put plainly: MTT test on human normal hepatocytes HL-7702. The note with it: read-out: IC50 HL-7702.
Experimental: as §1, §2
Series [3] has as its system HeLa. Description: MTT test for inhibition of tumor cells, HeLa. Type of series: cell-based. The note with it: 48 h.
Experimental: as §1, §2
The subject of series [4] is human mammary epithelial cells HMEC. Description: Toxicity on normal cell line HMEC. The class given is cell-based.
In series [5] the test system is human cervical immortalized cells H8. Description: Toxicity on normal cell line H8. The class given is cell-based.
Series [6] relates to breast cancer cell MCF7. Description: Activity on tumor cell MCF7. Type of series: cell-based, human. The note with it: for antitumor activity on MCF7 compared with etoposide: vs etoposide.
Series [7] deals with human embryonic lung cells MRC-5. Description: Toxicity on normal cell line MRC-5. The note with it: MRC5. The class given is cell-based.
The subject of series [8] is human lung cancer cell A549. Put plainly: Activity on tumor cell A549. The class given is cell-based. The note with it: vs etoposide.
Series [9] deals with human normal hepatocytes HL-7702.
Experimental: as §1, §2
Where [10] appears, read: human normal hepatocytes HL-7702, MTT, 48 h.

On to `COc1cc(C2c3cc4c(cc3C(Sc3nc5cc(F)ccc5o3)C3COC(=O)C23)OCO4)cc(OC)c1OC` (stereo not drawn) [Compound 9, 4β-S-(5-fluorobenzoxazol-2)-podophyllotoxin], for which the half-maximal inhibitory concentration (IC50) was 0.89 ± 0.07 µM in [1] and greater than 1000 µM in [2] (setting [10]).
Regarding “4β-S-(5-phenylbenzoxazol-2)-podophyllotoxin [Compound 11]”, the concentration for half-maximal inhibition (IC50) in series [3] is greater than 100 µM; in series [1], 5.25 ± 0.13 µM; in series [2] (setting [10]), 70.7 ± 1.65 µM.
In the case of `COc1cc(C2c3cc4c(cc3C(Sc3nccc(C(F)(F)F)n3)C3COC(=O)C23)OCO4)cc(OC)c1OC` (stereo not drawn) [Compound 3, 4-β-S-(4-trifluoromethylpyrimidin-2)-podophyllotoxin], the IC50 was determined as 10.1 ± 0.22 µM in series [3], 5.05 ± 0.78 µM in series [1] and 69.8 ± 1.23 µM in [2] (setting [10]).
In the case of `COc1cc([C@@H]2c3cc4c(cc3[C@@H](O[C@@H]3O[C@@H]5CO[C@@H](C)O[C@H]5[C@H](O)[C@H]3O)[C@H]3COC(=O)[C@H]23)OCO4)cc(OC)c1O` [Etoposide, etoposide, reference compound], the IC50 in series [4] is 23.2 ± 1.34 µM; in [5], 80.1 ± 1.35 µM; in [3] (Homo sapiens) it was 25.4 ± 2.9 µM; in [6] (Homo sapiens, tumor cell line MCF7), 56.8 ± 1.22 µM; in [1] (Homo sapiens), 20.7 ± 1.7 µM; in series [7], 30.3 ± 1.21 µM. For the same compound, the IC50 in series [2] (Homo sapiens, L02, 48 h) was determined as 28.8 ± 3.4 µM.
With `COc1cc([C@@H]2c3cc4c(cc3[C@H](O)[C@H]3COC(=O)[C@H]23)OCO4)cc(OC)c1OC` [Podophyllotoxin, podophyllotoxin], the 50% inhibitory concentration (IC50) in series [3] (Homo sapiens) turned out to be 75.81 ± 0.73 µM; in series [1] (Homo sapiens) it was 55.53 ± 0.24 µM; in series [2] (Homo sapiens, L02, 48 h) it was 67.18 ± 0.24 µM.
Turning to `COc1cc(C2c3cc4c(cc3C(Sc3nc5ncccc5[nH]3)C3COC(=O)C23)OCO4)cc(OC)c1OC` (stereo not drawn) [Compound 21, 4β-S-(1H-imidazo [4,5-B]pyridin-2)-podophyllotoxin], the IC50 in [3] was determined as 64.23 ± 0.45 µM; in series [1], 4.23 ± 0.36 µM; in series [2] (setting [10]), 56.6 ± 2.34 µM.
The like results for `COc1cc(C2c3cc4c(cc3C(Sc3nnnn3-c3ccccc3)C3COC(=O)C23)OCO4)cc(OC)c1OC` (stereo not drawn) [Compound 23, 4β-S-(1-phenyltetrazol-5)-podophyllotoxin] were, in that order, 15.8 ± 0.56 µM, 6.17 ± 0.27 µM and 87.1 ± 4.2 µM.
Consider “4β-S-(3-phenyl-1,3,4-thiadiazol-2(3H)thione potassium salt-5)-4demethylepipodophyllotoxin [Compound 26]”, for which the concentration for half-maximal inhibition (IC50) in series [3] was 48.49 ± 0.38 µM; in [1] it was 5.7 ± 0.33 µM.
As to `COc1cc(C2c3cc4c(cc3C(Sc3nc5cc(C)ccc5o3)C3COC(=O)C23)OCO4)cc(OC)c1O` (stereo not drawn) [Compound 14, 4β-S-(5-methylbenzoxazol-2)-4demethylepipodophyllotoxin], the half-inhibitory concentration (IC50) in series [3] is 11.9 ± 0.99 µM; in [1], 7.94 ± 0.21 µM; in [2] (setting [10]), 78.7 ± 2.5 µM.
The like results for `COc1cc(C2c3cc4c(cc3C(Sc3nc5cc(F)ccc5s3)C3COC(=O)C23)OCO4)cc(OC)c1OC` (stereo not drawn) [Compound 7, 4β-S-(5-fluorobenzothiazol-2)-podophyllotoxin] were, in that order, 1.47 ± 0.32 µM, 1 ± 0.06 µM and 97 ± 2.1 µM.
The like results for `COc1cc(C2c3cc4c(cc3C(Sc3nc5cc(OC(F)F)ccc5[nH]3)C3COC(=O)C23)OCO4)cc(OC)c1O` (stereo not drawn) [Compound 18, 4β-S-(5-difluoromethoxybenzimidazol-2)-4demethylepipodophyllotoxin] were, in that order, 7.6 ± 0.51 µM, 2.09 ± 0.17 µM and 11.3 ± 1.87 µM.
`COc1cc(C2c3cc4c(cc3C(Sc3nc5cc(OC(F)F)ccc5[nH]3)C3COC(=O)C23)OCO4)cc(OC)c1OC` (stereo not drawn) [Compound 17, 4β-S-(5-difluoromethoxybenzimidazol-2)-podophyllotoxin]: the results for the 50% inhibitory concentration (IC50) in [3], in series [1] and in series [2] (setting [10]) were 1.15 ± 0.16 µM, 0.92 ± 0.05 µM and 8.15 ± 0.87 µM, respectively.
Consider `COc1cc([C@@H]2c3cc4c(cc3[C@@H](Sc3nc(-c5ccncc5)cs3)[C@H]3COC(=O)[C@H]23)OCO4)cc(OC)c1OC` [Compound 27, 4β-S-(4-(4-pyridyl)thiazol-2)-podophyllotoxin], for which the IC50 in series [3] was found to be 1.95 ± 0.36 µM; in series [1], 0.89 ± 0.19 µM; in series [2] (setting [10]), 71.4 ± 2.71 µM.
Take `COc1cc([C@@H]2c3cc4c(cc3[C@@H](Sc3nc5cc(F)ccc5o3)[C@H]3COC(=O)[C@H]23)OCO4)cc(OC)c1O` [Compound 10, 4β-S -(5-fluorobenzoxazol-2)-4demethylepipodophyllotoxin]: the “antitumor activity on A549 compared with etoposide” value in [8] was “significantly improved”. Moreover, the “toxicity on HL-7702 cell line compared with control compounds” value in [9] is “significantly lower”. In series [6], the “antitumor activity on MCF7 compared with etoposide” value is “significantly improved”.
Consider `COc1cc(C2c3cc4c(cc3C(Sc3cc(C(F)(F)F)ccn3)C3COC(=O)C23)OCO4)cc(OC)c1OC` (stereo not drawn) [Compound 1, 4-β-S-(4-trifluoromethylpyridin-2)-podophyllotoxin], for which the IC50 in series [3] was found to be 1.86 ± 0.2 µM; in series [1] it was 2.04 ± 0.3 µM; in series [2] (setting [10]), 57 ± 1.1 µM.
For the compound `COc1cc([C@@H]2c3cc4c(cc3[C@@H](Sc3nc5cc(F)ccc5s3)[C@H]3COC(=O)[C@H]23)OCO4)cc(OC)c1O` [Compound 8, 4β-S-(5-fluorobenzothiazol-2)-4demethylepipodophyllotoxin], the “antitumor activity on A549 compared with etoposide” value in [8] was “significantly improved”. For the same compound, in series [9], the “toxicity on HL-7702 cell line compared with control compounds” value is “significantly lower”. Besides, the “antitumor activity on MCF7 compared with etoposide” value in [6] is on record as “significantly improved”.
With `COc1cc(C2c3cc4c(cc3C(Sc3ccc5ccccc5c3)C3COC(=O)C23)OCO4)cc(OC)c1OC` (stereo not drawn) [Compound 19, 4β-S-(naphthalen-2)-podophyllotoxin], the half-maximal inhibitory concentration (IC50) in series [3] turned out to be 3.91 ± 0.42 µM; in series [1], 3.06 ± 0.11 µM; in [2] (setting [10]), 90.9 ± 3.49 µM.
On the same counts, the results for `COc1cc(C2c3cc4c(cc3C(Sc3cc(C(F)(F)F)ccn3)C3COC(=O)C23)OCO4)cc(OC)c1O` (stereo not drawn) [Compound 2, 4-β-S-(4-trifluoromethylpyridin-2)-4demethylepipodophyllotoxin] are 4.58 ± 0.13 µM, 4.5 ± 0.45 µM and 42.3 ± 1.52 µM.
For “4β-S-(6-chlorobenzoxazol-2)-podophyllotoxin [Compound 15]”, the half-maximal inhibitory concentration (IC50) in series [3] amounted to 7.23 ± 0.44 µM; in series [1], 5.23 ± 0.35 µM; in series [2] (setting [10]), 43.3 ± 3.5 µM.
With `COc1cc(C2c3cc4c(cc3C(Sc3nc5cc(C)ccc5o3)C3COC(=O)C23)OCO4)cc(OC)c1OC` (stereo not drawn) [Compound 13, 4β-S-(5-methylbenzoxazol-2)-podophyllotoxin], the figures for the IC50 in [3], in series [1] and in series [2] (setting [10]) were 9.31 ± 0.6 µM, 7.31 ± 0.4 µM and 60.1 ± 1.6 µM, respectively.
On the same counts, the results for `COc1cc(C2c3cc4c(cc3C(Sc3nccc(C(F)(F)F)n3)C3COC(=O)C23)OCO4)cc(OC)c1O` (stereo not drawn) [Compound 4, 4-β-S-(4-trifluoromethylpyrimidin-2)-4demethylepipodophyllotoxin] are 39.36 ± 0.35 µM, 7.37 ± 0.32 µM and 54.9 ± 0.98 µM.
Regarding `COc1cc(C2c3cc4c(cc3C(Sc3ccc(F)cc3)C3COC(=O)C23)OCO4)cc(OC)c1OC` (stereo not drawn) [Compound 5, 4β-S-(4-fluorobenzene-1)-podophyllotoxin], the figures for the IC50 in series [3], in [1] and in series [2] (setting [10]) were 9.5 ± 0.43 µM, 2.28 ± 0.1 µM and 44.5 ± 1 µM, respectively.
Regarding “4β-S-(3-phenyl-1,3,4-thiadiazol-2(3H)thione potassium salt-5)-podophyllotoxin [Compound 25]”, the figures for the concentration for half-maximal inhibition (IC50) in [3] and in series [1] were 31.9 ± 0.42 µM and 2.2 ± 0.28 µM, respectively.
With `COc1cc([C@@H]2c3cc4c(cc3[C@@H](Sc3nc(-c5ccncc5)cs3)[C@H]3COC(=O)[C@H]23)OCO4)cc(OC)c1O` [Compound 28, 4β-S-(4-(4-pyridyl)thiazol-2)-4demethylepipodophyllotoxin], the 50% inhibitory concentration (IC50) in [3] amounted to 24.1 ± 1.29 µM; in [1], 29.2 ± 1.34 µM; in series [2] (setting [10]), 60.1 ± 2.88 µM.
The like results for “4β-S-(6-chlorobenzoxazol-2)-4demethylepipodophyllotoxin [Compound 16]” were, in that order, 32.3 ± 1.87 µM, 22.3 ± 1.46 µM and 68.3 ± 4.5 µM.
The like results for “4β-S-(5-phenylbenzoxazol-2)-4demethylepipodophyllotoxin [Compound 12]” were, in that order, greater than 100 µM, 10.2 ± 0.46 µM and 56.8 ± 1.32 µM.
